Experimental data taken from ChEMBL document CHEMBL3044763, “Inhibitory Activities of Rhodanine Derivatives on Plant Growth” (Biosci Biotechnol Biochem, 1996).

Legend:
[1] = test system: Brassica rapa subsp. oleifera; assay: Growth inhibition of Brassica rapa subsp. oleifera assessed as chlorophyll b level at 3 x 10^-4 M after 7 days; assay type: functional; set-up: scale not given: the % may be the effect or the level left
[2] = test system: Brassica rapa subsp. oleifera; assay: Growth inhibition of Brassica rapa subsp. oleifera assessed as chlorophyll b level at 1 x 10^-4 M after 7 days; assay type: functional; set-up: scale not given: the % may be the effect or the level left
[3] = test system: Brassica rapa subsp. oleifera; assay: Growth inhibition of Brassica rapa subsp. oleifera assessed as chlorophyll a level at 3 x 10^-5 M after 7 days; assay type: functional; set-up: scale not given: the % may be the effect or the level left
[4] = test system: Brassica rapa subsp. oleifera; assay: Growth inhibition of Brassica rapa subsp. oleifera assessed as chlorophyll a level at 5 x 10^-5 M after 7 days; assay type: functional; set-up: scale not given: the % may be the effect or the level left
[5] = Toxicity in Mus musculus ddY (mouse) assessed as mortality at 500 mg/kg, ip after 4 days; assay type: organism-based; set-up: dose 500 mg/kg, route intraperitoneal; conditions: in vivo
[6] = Toxicity in Mus musculus ddY (mouse) assessed as mortality at 650 mg/kg, ip after 4 days; assay type: organism-based; set-up: dose 650 mg/kg, route intraperitoneal; conditions: in vivo
[7] = Toxicity in Mus musculus ddY (mouse) assessed as mortality at 600 mg/kg, ip after 4 days; assay type: organism-based; set-up: dose 600 mg/kg, route intraperitoneal; conditions: in vivo
[8] = Toxicity in ip dosed Mus musculus ddY (mouse) assessed as mortality after 1 to 7 days; assay type: organism-based; conditions: in vivo
[9] = test system: Brassica rapa subsp. oleifera; assay: Growth inhibition of Brassica rapa subsp. oleifera assessed as total chlorophyll level at 5 x 10^-5 M after 7 days; assay type: functional; set-up: scale not given: the % may be the effect or the level left
[10] = test system: Brassica rapa subsp. oleifera; assay: Growth inhibition of Brassica rapa subsp. oleifera assessed as total chlorophyll level at 3 x 10^-5 M after 7 days; assay type: functional; set-up: scale not given: the % may be the effect or the level left
[11] = test system: Brassica rapa subsp. oleifera; assay: Growth inhibition of Brassica rapa subsp. oleifera assessed as total chlorophyll level at 1 x 10^-4 M after 7 days; assay type: functional; set-up: scale not given: the % may be the effect or the level left
[12] = test system: Brassica rapa subsp. oleifera; assay: Growth inhibition of Brassica rapa subsp. oleifera assessed as total chlorophyll level at 3 x 10^-4 M after 7 days; assay type: functional; set-up: scale not given: the % may be the effect or the level left
[13] = test system: Brassica rapa subsp. oleifera; assay: Growth inhibition of Brassica rapa subsp. oleifera assessed as root growth at 3 x 10^-5 M after 7 days; assay type: functional
[14] = test system: Brassica rapa subsp. oleifera; assay: Growth inhibition of Brassica rapa subsp. oleifera assessed as root growth at 5 x 10^-5 M after 7 days; assay type: functional
[15] = test system: Brassica rapa subsp. oleifera; assay: Growth inhibition of Brassica rapa subsp. oleifera assessed as root growth at 1 x 10^-4 M after 7 days; assay type: functional
[16] = test system: Brassica rapa subsp. oleifera; assay: Growth inhibition of Brassica rapa subsp. oleifera assessed as root growth at 3 x 10^-4 M after 7 days; assay type: functional
[17] = Toxicity in Mus musculus ddY (mouse) assessed as mortality at 400 mg/kg, ip after 4 days; assay type: organism-based; set-up: dose 400 mg/kg, route intraperitoneal; conditions: in vivo
[18] = Toxicity in Mus musculus ddY (mouse) assessed as mortality at 450 mg/kg, ip after 3 days; assay type: organism-based; set-up: dose 450 mg/kg, route intraperitoneal; conditions: in vivo
[19] = Toxicity in Mus musculus ddY (mouse) assessed as mortality at 400 mg/kg, ip after 3 days; assay type: organism-based; set-up: dose 400 mg/kg, route intraperitoneal; conditions: in vivo
[20] = Toxicity in Mus musculus ddY (mouse) assessed as mortality at 550 mg/kg, ip after 3 days; assay type: organism-based; set-up: dose 550 mg/kg, route intraperitoneal; conditions: in vivo
[21] = Toxicity in Mus musculus ddY (mouse) assessed as mortality at 500 mg/kg, ip after 3 days; assay type: organism-based; set-up: dose 500 mg/kg, route intraperitoneal; conditions: in vivo
[22] = Toxicity in Mus musculus ddY (mouse) assessed as mortality at 650 mg/kg, ip after 3 days; assay type: organism-based; set-up: dose 650 mg/kg, route intraperitoneal; conditions: in vivo
[23] = Toxicity in Mus musculus ddY (mouse) assessed as mortality at 600 mg/kg, ip after 3 days; assay type: organism-based; set-up: dose 600 mg/kg, route intraperitoneal; conditions: in vivo
[24] = Toxicity in Mus musculus ddY (mouse) assessed as mortality at 450 mg/kg, ip after 2 days; assay type: organism-based; set-up: dose 450 mg/kg, route intraperitoneal; conditions: in vivo
[25] = Toxicity in Mus musculus ddY (mouse) assessed as mortality at 550 mg/kg, ip after 2 days; assay type: organism-based; set-up: dose 550 mg/kg, route intraperitoneal; conditions: in vivo
[26] = Toxicity in Mus musculus ddY (mouse) assessed as mortality at 500 mg/kg, ip after 2 days; assay type: organism-based; set-up: dose 500 mg/kg, route intraperitoneal; conditions: in vivo
[27] = Toxicity in Mus musculus ddY (mouse) assessed as mortality at 650 mg/kg, ip after 2 days; assay type: organism-based; set-up: dose 650 mg/kg, route intraperitoneal; conditions: in vivo
[28] = Toxicity in Mus musculus ddY (mouse) assessed as mortality at 600 mg/kg, ip after 2 days; assay type: organism-based; set-up: dose 600 mg/kg, route intraperitoneal; conditions: in vivo
[29] = Toxicity in Mus musculus ddY (mouse) assessed as mortality at 400 mg/kg, ip after 2 days; assay type: organism-based; set-up: dose 400 mg/kg, route intraperitoneal; conditions: in vivo
[30] = Toxicity in Mus musculus ddY (mouse) assessed as mortality at 450 mg/kg, ip after 1 day; assay type: organism-based; set-up: dose 450 mg/kg, route intraperitoneal; conditions: in vivo
[31] = Toxicity in Mus musculus ddY (mouse) assessed as mortality at 550 mg/kg, ip after 1 day; assay type: organism-based; set-up: dose 550 mg/kg, route intraperitoneal; conditions: in vivo
[32] = Toxicity in Mus musculus ddY (mouse) assessed as mortality at 500 mg/kg, ip after 1 day; assay type: organism-based; set-up: dose 500 mg/kg, route intraperitoneal; conditions: in vivo
[33] = Toxicity in Mus musculus ddY (mouse) assessed as mortality at 650 mg/kg, ip after 1 day; assay type: organism-based; set-up: dose 650 mg/kg, route intraperitoneal; conditions: in vivo
[34] = Toxicity in Mus musculus ddY (mouse) assessed as mortality at 600 mg/kg, ip after 1 day; assay type: organism-based; set-up: dose 600 mg/kg, route intraperitoneal; conditions: in vivo
[35] = test system: Brassica rapa subsp. oleifera; assay: Growth inhibition of Brassica rapa subsp. oleifera assessed as chlorophyll b level at 3 x 10^-5 M after 7 days; assay type: functional; set-up: scale not given: the % may be the effect or the level left
[36] = Toxicity in Mus musculus ddY (mouse) assessed as mortality at 400 mg/kg, ip after 1 day; assay type: organism-based; set-up: dose 400 mg/kg, route intraperitoneal; conditions: in vivo
[37] = test system: Brassica rapa subsp. oleifera; assay: Growth inhibition of Brassica rapa subsp. oleifera assessed as chlorophyll b level at 5 x 10^-5 M after 7 days; assay type: functional; set-up: scale not given: the % may be the effect or the level left
[38] = test system: Brassica rapa subsp. oleifera; assay: Growth inhibition of Brassica rapa subsp. oleifera assessed as chlorophyll a level at 1 x 10^-4 M after 7 days; assay type: functional; set-up: scale not given: the % may be the effect or the level left
[39] = test system: Brassica rapa subsp. oleifera; assay: Growth inhibition of Brassica rapa subsp. oleifera assessed as chlorophyll a level at 3 x 10^-4 M after 7 days; assay type: functional; set-up: scale not given: the % may be the effect or the level left
[40] = Toxicity in Mus musculus ddY (mouse) assessed as mortality at 450 mg/kg, ip after 5 days; assay type: organism-based; set-up: dose 450 mg/kg, route intraperitoneal; conditions: in vivo
[41] = Toxicity in Mus musculus ddY (mouse) assessed as mortality at 550 mg/kg, ip after 5 days; assay type: organism-based; set-up: dose 550 mg/kg, route intraperitoneal; conditions: in vivo
[42] = Toxicity in Mus musculus ddY (mouse) assessed as mortality at 500 mg/kg, ip after 5 days; assay type: organism-based; set-up: dose 500 mg/kg, route intraperitoneal; conditions: in vivo
[43] = Toxicity in Mus musculus ddY (mouse) assessed as mortality at 600 mg/kg, ip after 5 days; assay type: organism-based; set-up: dose 600 mg/kg, route intraperitoneal; conditions: in vivo
[44] = Toxicity in Mus musculus ddY (mouse) assessed as mortality at 650 mg/kg, ip after 5 days; assay type: organism-based; set-up: dose 650 mg/kg, route intraperitoneal; conditions: in vivo
[45] = Toxicity in Mus musculus ddY (mouse) assessed as mortality at 400 mg/kg, ip after 5 days; assay type: organism-based; set-up: dose 400 mg/kg, route intraperitoneal; conditions: in vivo
[46] = Toxicity in Mus musculus ddY (mouse) assessed as mortality at 500 mg/kg, ip after 7 days; assay type: organism-based; set-up: dose 500 mg/kg, route intraperitoneal; conditions: in vivo
[47] = Toxicity in Mus musculus ddY (mouse) assessed as mortality at 600 mg/kg, ip after 7 days; assay type: organism-based; set-up: dose 600 mg/kg, route intraperitoneal; conditions: in vivo
[48] = Toxicity in Mus musculus ddY (mouse) assessed as mortality at 550 mg/kg, ip after 7 days; assay type: organism-based; set-up: dose 550 mg/kg, route intraperitoneal; conditions: in vivo
[49] = Toxicity in Mus musculus ddY (mouse) assessed as mortality at 650 mg/kg, ip after 7 days; assay type: organism-based; set-up: dose 650 mg/kg, route intraperitoneal; conditions: in vivo
[50] = Toxicity in Mus musculus ddY (mouse) assessed as mortality at 400 mg/kg, ip after 7 days; assay type: organism-based; set-up: dose 400 mg/kg, route intraperitoneal; conditions: in vivo
[51] = Toxicity in Mus musculus ddY (mouse) assessed as mortality at 450 mg/kg, ip after 6 days; assay type: organism-based; set-up: dose 450 mg/kg, route intraperitoneal; conditions: in vivo
[52] = Toxicity in Mus musculus ddY (mouse) assessed as mortality at 550 mg/kg, ip after 6 days; assay type: organism-based; set-up: dose 550 mg/kg, route intraperitoneal; conditions: in vivo
[53] = Toxicity in Mus musculus ddY (mouse) assessed as mortality at 500 mg/kg, ip after 6 days; assay type: organism-based; set-up: dose 500 mg/kg, route intraperitoneal; conditions: in vivo
[54] = Toxicity in Mus musculus ddY (mouse) assessed as mortality at 650 mg/kg, ip after 6 days; assay type: organism-based; set-up: dose 650 mg/kg, route intraperitoneal; conditions: in vivo
[55] = Toxicity in Mus musculus ddY (mouse) assessed as mortality at 600 mg/kg, ip after 6 days; assay type: organism-based; set-up: dose 600 mg/kg, route intraperitoneal; conditions: in vivo
[56] = Toxicity in Mus musculus ddY (mouse) assessed as mortality at 400 mg/kg, ip after 6 days; assay type: organism-based; set-up: dose 400 mg/kg, route intraperitoneal; conditions: in vivo
[57] = Toxicity in Mus musculus ddY (mouse) assessed as mortality at 450 mg/kg, ip after 7 days; assay type: organism-based; set-up: dose 450 mg/kg, route intraperitoneal; conditions: in vivo
[58] = Toxicity in Mus musculus ddY (mouse) assessed as mortality at 450 mg/kg, ip after 4 days; assay type: organism-based; set-up: dose 450 mg/kg, route intraperitoneal; conditions: in vivo
[59] = Toxicity in Mus musculus ddY (mouse) assessed as mortality at 550 mg/kg, ip after 4 days; assay type: organism-based; set-up: dose 550 mg/kg, route intraperitoneal; conditions: in vivo

O=C(O)CN1C(=O)CSC1=S [RHODANINE-3-ACETIC ACID]
Activity [1]: 3.76%
Activity [2]: 5.48%
Activity [3]: 18.01%
Activity [4]: 17.08%
mortality at 96 h [5]: 20%
mortality at 96 h [6]: 100%
mortality at 96 h [7]: 80%
LD50 [8]: 510 mg/kg
Activity [9]: 24.42%
Activity [10]: 25.06%
Activity [11]: 19.57%
Activity [12]: 13.99%
Root length [13]: 57 mm
Root length [14]: 57.1 mm
Activity [15]: 39.8 mm
Activity [16]: 18.3 mm
mortality at 96 h [17]: 0%
mortality at 72 h [18]: 0%
mortality at 72 h [19]: 0%
mortality at 72 h [20]: 40%
mortality at 72 h [21]: 20%
mortality at 72 h [22]: 100%
mortality at 72 h [23]: 60%
mortality at 48 h [24]: 0%
mortality at 48 h [25]: 0%
mortality at 48 h [26]: 20%
mortality at 48 h [27]: 100%
mortality at 48 h [28]: 60%
mortality at 48 h [29]: 0%
mortality at 24 h [30]: 0%
mortality at 24 h [31]: 0%
mortality at 24 h [32]: 0%
mortality at 24 h [33]: 20%
mortality at 24 h [34]: 20%
Activity [35]: 7.05%
mortality at 24 h [36]: 0%
Activity [37]: 7.35%
Activity [38]: 14.1%
Activity [39]: 10.17%
mortality at 120 h [40]: 20%
mortality at 120 h [41]: 80%
mortality at 120 h [42]: 20%
mortality at 120 h [43]: 80%
mortality at 120 h [44]: 100%
mortality at 120 h [45]: 0%
mortality at 168 h [46]: 40%
mortality at 168 h [47]: 80%
mortality at 168 h [48]: 80%
mortality at 168 h [49]: 100%
mortality at 168 h [50]: 0%
mortality at 144 h [51]: 20%
mortality at 144 h [52]: 80%
mortality at 144 h [53]: 40%
mortality at 144 h [54]: 100%
mortality at 144 h [55]: 80%
mortality at 144 h [56]: 0%
mortality at 168 h [57]: 20%
mortality at 96 h [58]: 20%
mortality at 96 h [59]: 80%
